Assay results published in ChEMBL document CHEMBL1201862, “PubChem BioAssay data set” (2004).
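Each compound was tested at five concentrations against cells in 96-well plates for 48 hours. GI50 marks 50% less growth.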 Calls of active or inactive are those of the source. No stated cut-off is given here; in the data, active = GI50 up to about 1.1 µM and inactive = higher.

Tests used:
Assay in all cases: DTP human tumour cell line panel, 48 h
MDA-N = system: MDA-N
M14 = system: M14
MDA-MB-231 = system: MDA-MB-231
UACC-257 = system: UACC-257
SNB-75 = system: SNB-75
SW-620 = system: SW-620
SF-268 = system: SF-268
RXF 393 = system: RXF 393
NCI-H522 = system: NCI-H522
SNB-19 = system: SNB-19
OVCAR-8 = system: OVCAR-8
EKVX = system: EKVX
HOP-92 = system: HOP-92
HL-60 = system: HL-60
NCI-H226 = system: NCI-H226
MOLT-4 = system: MOLT-4
MDA-MB-435 = system: MDA-MB-435
HT-29 = system: HT-29
TK-10 = system: TK-10
HCT-15 = system: HCT-15
SK-MEL-2 = system: SK-MEL-2
U-251 = system: U-251
HCT-116 = system: HCT-116
OVCAR-5 = system: OVCAR-5
SN12C = system: SN12C
SF-539 = system: SF-539
NCI-H460 = system: NCI-H460
A498 = system: A498
LOX IMVI = system: LOX IMVI
UO-31 = system: UO-31
CAKI-1 = system: CAKI-1
SR = system: SR
SK-OV-3 = system: SK-OV-3
HCC 2998 = system: HCC 2998
DU-145 = system: DU-145
PC-3 = system: PC-3
ACHN = system: ACHN
SF-295 = system: SF-295
RPMI-8226 = system: RPMI-8226
HOP-62 = system: HOP-62
OVCAR-4 = system: OVCAR-4
Malme-3M = system: Malme-3M
Hs-578T = system: Hs-578T
K562 = system: K562
T47D = system: T47D
NCI-H23 = system: NCI-H23
SK-MEL-5 = system: SK-MEL-5
CCRF-CEM = system: CCRF-CEM
A549 = system: A549
SK-MEL-28 = system: SK-MEL-28
COLO 205 = system: COLO 205
BT-549 = system: BT-549
786-0 = system: 786-0
KM12 = system: KM12
UACC-62 = system: UACC-62
MCF7 = system: MCF7
NCI/ADR-RES = system: NCI/ADR-RES
OVCAR-3 = system: OVCAR-3
IGROV-1 = system: IGROV-1
KM-20L2 = system: KM-20L2

Measured: GI50

C=CCn1c(=O)c(C)cn(/C(=C/C(=O)OCC)C(=O)OCC)c1=O
inactive: MDA-N 13.9 µM | M14 13.7 µM | MDA-MB-231 15.5 µM | UACC-257 20.5 µM | SNB-75 11.1 µM | SW-620 3.85 µM | SF-268 18.9 µM | RXF 393 14 µM | NCI-H522 1.69 µM | SNB-19 46.9 µM | OVCAR-8 17.6 µM | EKVX 14 µM | HOP-92 3.52 µM | HL-60 2.19 µM | NCI-H226 31.6 µM | MOLT-4 5.87 µM | MDA-MB-435 13.5 µM | HT-29 12.9 µM | TK-10 15.4 µM | SK-MEL-2 23.2 µM | U-251 14.4 µM | HCT-116 9.62 µM | OVCAR-5 16.4 µM | SN12C 14.2 µM | SF-539 23.2 µM | NCI-H460 25.4 µM | A498 22.1 µM | LOX IMVI 6.28 µM | UO-31 15.7 µM | CAKI-1 1.85 µM | SR 5.33 µM | SK-OV-3 60 µM | HCC 2998 17.4 µM | DU-145 40.7 µM | PC-3 14.8 µM | ACHN 9.08 µM | SF-295 > 84.1 µM | RPMI-8226 14.6 µM | HOP-62 51.1 µM | OVCAR-4 18.3 µM | Malme-3M 13.8 µM | Hs-578T 24.5 µM | K562 4.19 µM | T47D 11.9 µM | NCI-H23 16.1 µM | SK-MEL-5 18 µM | CCRF-CEM 1.42 µM | A549 30 µM | SK-MEL-28 15.9 µM | COLO 205 4.55 µM | BT-549 16.2 µM | 786-0 5.87 µM | KM12 17.2 µM | UACC-62 16.5 µM | MCF7 4.34 µM | NCI/ADR-RES 21.1 µM | OVCAR-3 9.66 µM | IGROV-1 16.4 µM
2.97 µM: HCT-15

COc1ccc(/C=C/c2cc(OC)c(OC)c(OC)c2)cc1O [E-COMBRETASTATIN A-4]
inactive: EKVX 8.73 µM | HT-29 7.89 µM | TK-10 13.3 µM | KM-20L2 8.71 µM | OVCAR-5 22.2 µM | UO-31 1.13 µM | CAKI-1 6.71 µM | BT-549 8.95 µM | IGROV-1 3.17 µM

CC1CCC(O)/C=C/C(=O)OC(C)C(O)/C=C/C(=O)O1 (configuration not stated)
> 94 µM: HCT-15
inactive: MDA-N > 95.9 µM | M14 > 56.1 µM | MDA-MB-231 > 100 µM | UACC-257 > 100 µM | SNB-75 > 100 µM | SW-620 60.4 µM | SF-268 > 100 µM | RXF 393 > 62.1 µM | NCI-H522 35.6 µM | SNB-19 > 100 µM | OVCAR-8 > 100 µM | EKVX > 100 µM | HOP-92 52.8 µM | HL-60 37.2 µM | NCI-H226 > 100 µM | MOLT-4 19.1 µM | MDA-MB-435 > 100 µM | HT-29 > 100 µM | TK-10 > 83.8 µM | SK-MEL-2 > 100 µM | U-251 > 100 µM | HCT-116 > 60.5 µM | OVCAR-5 > 100 µM | SN12C > 100 µM | SF-539 > 86.7 µM | NCI-H460 > 100 µM | A498 > 100 µM | LOX IMVI > 100 µM | UO-31 > 100 µM | CAKI-1 > 100 µM | SR 51.5 µM | SK-OV-3 > 100 µM | HCC 2998 > 100 µM | DU-145 > 100 µM | PC-3 > 100 µM | ACHN > 68.4 µM | SF-295 > 100 µM | RPMI-8226 74.1 µM | HOP-62 > 100 µM | OVCAR-4 > 100 µM | Malme-3M > 100 µM | Hs-578T > 100 µM | K562 41.9 µM | T47D > 100 µM | NCI-H23 > 73.5 µM | SK-MEL-5 > 100 µM | CCRF-CEM 25.4 µM | A549 > 100 µM | SK-MEL-28 > 100 µM | COLO 205 64 µM | BT-549 41.8 µM | 786-0 > 92.9 µM | KM12 > 100 µM | UACC-62 > 100 µM | MCF7 > 92.9 µM | NCI/ADR-RES > 100 µM | OVCAR-3 57.1 µM | IGROV-1 > 100 µM
